The NIST ThermoML archive (doi:10.1016/j.jct.2013.05.009)

Experiment: xn = mol fraction of the nth substance listed
Settings: 101 kPa, Liquid; for mass density: Vibrating tube method; for speed of sound: fixed-path interferometer

CC(C)CC(C)(C)C [2,2,4-trimethylpentane] + CCCCO
Settings | mass density, 298.15 K [kg/m3] | mass density, 308.15 K [kg/m3] | mass density, 318.15 K [kg/m3] | mass density, 328.15 K [kg/m3] | speed of sound, 298.15 K [m/s] | speed of sound, 308.15 K [m/s] | speed of sound, 318.15 K [m/s] | speed of sound, 328.15 K [m/s]
x1 = 0.03101 | 799.41 | 791.7 | 783.95 | 776.09 | 1229.7 | 1195.8 | 1162.1 | 1128.6
x1 = 0.07555 | 790.82 | 783.03 | 775.22 | 767.29 | 1216 | 1181.3 | 1146.9 | 1112.6
x1 = 0.1426 | 778.75 | 770.87 | 762.95 | 754.91 | 1196.8 | 1161.1 | 1125.6 | 1090.3
x1 = 0.2049 | 768.51 | 760.53 | 752.52 | 744.39 | 1180.8 | 1144.2 | 1107.8 | 1071.7
x1 = 0.2621 | 759.76 | 751.67 | 743.61 | 735.41 | 1167.3 | 1130 | 1092.5 | 1056.1
x1 = 0.3176 | 751.87 | 743.75 | 735.6 | 727.34 | 1155.5 | 1117.5 | 1079.8 | 1042.5
x1 = 0.3932 | 741.94 | 733.74 | 725.51 | 717.19 | 1141.1 | 1102.3 | 1063.9 | 1025.9
x1 = 0.4553 | 734.44 | 726.18 | 717.92 | 709.56 | 1130.7 | 1091.4 | 1052.6 | 1014.1
x1 = 0.5458 | 724.43 | 716.13 | 707.81 | 699.42 | 1117.4 | 1077.5 | 1038.1 | 999.2
x1 = 0.6067 | 718.27 | 709.93 | 701.6 | 693.2 | 1109.8 | 1069.5 | 1029.7 | 990.4
x1 = 0.6787 | 711.51 | 703.15 | 694.8 | 686.39 | 1101.9 | 1061.3 | 1021.1 | 981.6
x1 = 0.742 | 706.01 | 697.65 | 689.3 | 680.9 | 1095.9 | 1055.1 | 1014.7 | 974.8
x1 = 0.8095 | 700.58 | 692.21 | 683.87 | 675.5 | 1090.6 | 1049.5 | 1008.8 | 968.8
x1 = 0.8683 | 696.2 | 687.84 | 679.5 | 671.13 | 1086.7 | 1045.4 | 1004.6 | 964.3
x1 = 0.9078 | 693.42 | 685.07 | 676.75 | 668.4 | 1084.5 | 1043.1 | 1002.2 | 961.8
x1 = 0.9422 | 691.1 | 682.76 | 674.47 | 666.16 | 1082.9 | 1041.5 | 1000.6 | 960.2
x1 = 0.9619 | 689.83 | 681.51 | 673.25 | 664.98 | 1082.3 | 1040.7 | 1000 | 959.7
x1 = 0.981 | 688.66 | 680.37 | 672.16 | 663.97 | 1082.1 | 1040.9 | 1000.1 | 959.7
x1 = 1 | 687.68 | 679.45 | 671.3 | 663.17 | 1082.7 | 1041.1 | 1000.1 | 959.4

CCCCO [butan-1-ol] + Cc1ccccc1
Settings | mass density, 298.15 K [kg/m3] | mass density, 308.15 K [kg/m3] | mass density, 318.15 K [kg/m3] | mass density, 328.15 K [kg/m3] | speed of sound, 298.15 K [m/s] | speed of sound, 308.15 K [m/s] | speed of sound, 318.15 K [m/s] | speed of sound, 328.15 K [m/s]
x2 = 0 | 805.71 | 798.05 | 790.36 | 782.56 | 1240 | 1206.6 | 1173.4 | 1140.4
x2 = 0.02621 | 807.5 | 799.76 | 791.98 | 784.09 | 1241.1 | 1207.3 | 1173.8 | 1140.4
x2 = 0.06979 | 810.42 | 802.54 | 794.62 | 786.6 | 1242.9 | 1208.6 | 1174.5 | 1140.6
x2 = 0.1334 | 814.51 | 806.45 | 798.34 | 790.12 | 1245.4 | 1210.3 | 1175.4 | 1140.8
x2 = 0.1909 | 818.08 | 809.86 | 801.59 | 793.21 | 1247.6 | 1211.8 | 1176.3 | 1141
x2 = 0.2606 | 822.26 | 813.87 | 805.42 | 796.86 | 1250.1 | 1213.6 | 1177.4 | 1141.5
x2 = 0.3391 | 826.8 | 818.22 | 809.59 | 800.85 | 1252.9 | 1215.6 | 1178.6 | 1142
x2 = 0.4066 | 830.59 | 821.86 | 813.1 | 804.22 | 1255.4 | 1217.5 | 1180 | 1142.8
x2 = 0.473 | 834.2 | 825.36 | 816.47 | 807.48 | 1258 | 1219.6 | 1181.6 | 1144.1
x2 = 0.5406 | 837.84 | 828.87 | 819.88 | 810.78 | 1261 | 1222 | 1183.7 | 1145.7
x2 = 0.6007 | 841.01 | 831.96 | 822.88 | 813.7 | 1263.9 | 1224.6 | 1185.9 | 1147.6
x2 = 0.6711 | 844.68 | 835.54 | 826.37 | 817.12 | 1267.8 | 1228.2 | 1189.1 | 1150.5
x2 = 0.7376 | 848.14 | 838.93 | 829.68 | 820.37 | 1272.3 | 1232.3 | 1192.8 | 1154
x2 = 0.7967 | 851.2 | 841.92 | 832.63 | 823.27 | 1277 | 1236.8 | 1197.1 | 1158
x2 = 0.8691 | 854.94 | 845.61 | 836.27 | 826.88 | 1284.3 | 1243.8 | 1203.8 | 1164.4
x2 = 0.9327 | 858.35 | 848.98 | 839.62 | 830.24 | 1293.6 | 1252.7 | 1212.2 | 1171.9
x2 = 0.9649 | 860.1 | 850.75 | 841.43 | 832.09 | 1299.9 | 1258.4 | 1217 | 1175.9
